Data on 89 molecules can be found in a melting point compilation (Tetko et al.; mined from patent text by program, amines drawn as free bases though some values may be those of a salt).

The melting point is the temperature of the solid-liquid transition. In turn, `CCc1cc(-c2nc(C)c(-c3ccnc(Nc4ccc(N5CCOCC5)cc4)n3)s2)ccn1` registered a melting point of 214 to 215 °C. For `CC1(C)CC(S(=O)(=O)Cc2c(C(F)(F)F)nn3c2OCCC3)=NO1`, the melting point was in the range of 151 to 152 °C. In turn, `CCNC(=O)c1cc(N)c(N)cc1OC` came in with a melting point of 65 to 67 °C. Turning to `COc1cnccc1CCCOc1cccnc1Oc1ccccc1`, the melting point lay within 101 to 102 °C. Turning to `Cc1c(Br)c[nH]c1C=O`, the melting point is 140 to 143 °C. `CCOC(=O)Cc1cnn(CC)c1O`: the melting point was 107 to 108 °C. On to `Cc1ccc(S(=O)(=O)Nc2cccc3cc(C(N)=O)[nH]c23)cc1`, for which the melting point lay within 312 to 313 °C.

In the case of `Fc1ccc(F)c2c(NCCc3ccc(Oc4ccnc(C(F)(F)F)c4)cc3)ncnc12`, the melting point was in the range of 95 to 96 °C. The result for `CCOC(=O)C1(N2C(=O)c3cccc(F)c3C2=O)CC1` reads 164 °C; that for `CC(C)n1cc(-c2cccc(Cl)c2)c2ncccc2c1=O`, 164 °C; that for `CCCN1CCc2[nH]c3ccc4scc(-c5ccccc5)c4c3c2C1`, 187 to 188 °C. The result for `CN1C(=O)[C@@H](NC(=O)C=Cc2ccccc2)N=C(c2ccccc2)c2ccccc21` reads 126 to 140 °C; that for `O=c1ccn(CCO)c(C(O)c2ccccc2OCc2ccccc2)c1OCc1ccccc1` (centres undefined), 196 to 197 °C; that for `COc1ccc2onc(Nc3ccncc3)c2c1`, 248 to 251 °C. For the molecule `O=[N+]([O-])c1cccc(CO)c1Cl`, the melting point is 69 to 70 °C. For the molecule `CSCC[C@@H](NC(=O)[C@H](Cc1ccc(O)cc1)NC(=O)OC(C)(C)C)C(=O)NCC(=O)O`, the melting point amounted to 194 °C. The result for `CCCCC(=N)NC(=S)Nc1ccc(Cl)cc1` reads 164 to 166 °C; that for `CC(=O)N=NCc1ccc(OCCCCCOc2ccc(C(=O)N(C(C)C)C(C)C)c(Cl)c2)cc1`, 59 to 61 °C. Molecule `O=C(NNc1ccc([N+](=O)[O-])cc1)c1ccccc1` registered a melting point of 194 to 195 °C. As to `CN1C2C=C(c3c[nH]c(-c4ccc(F)cc4)c3-c3ccncc3)CC1CC2` (centres undefined), the melting point lay in the range of 243 to 245 °C. `NC(=O)N(O)Cc1ccc(-c2ccccc2)s1` returned a melting point of 174 °C. As to `O=C1NCCN1c1cccc(Cl)c1`, the melting point was in the range of 121 to 123 °C.

`O=Cc1c(F)cc(Br)cc1Br` registered a melting point of 57 to 58 °C.

Consider `CC1CCN(C(=O)Oc2ccc(Oc3ccc(Cl)cc3)cc2)CC1`, for which the melting point fell in the range of 72 to 75 °C. Molecule `CCOC1=NS(=O)(=O)C(C(=O)OCc2ccccc2)=C1N` yielded a melting point of 144 to 147 °C. As to `O=C(O)c1ccc(-n2ncc3ccccc32)cc1`, the melting point lay in the range of 171 to 172 °C. The result for `COc1ccccc1C(=CC=O)c1ccccc1OC` reads 59.5 to 61.5 °C. With `COc1ccc(C(=O)Nc2nc3ccc(N)cc3c(NCc3ccccc3)c2C#N)cc1`, the melting point is 228 to 230 °C. The result for `COc1cc2cc(C(=O)Nc3cc(OCc4ccccc4)c4ccccc4c3CCCl)[nH]c2c(OC)c1OC` reads 180 to 184 °C. In the case of `CC(=O)N(CCCCn1ccnc1)C1=Nc2cccc3cccc1c23`, the melting point fell in the range of 127 to 130 °C. `Cc1snnc1SCC1=C(C(=O)OC(C)(C)C)N2C(=O)[C@@H](NC(=O)Cc3cccs3)[C@H]2SC1`: the melting point is 155 to 157 °C. The result for `O=C(CCCN1CCCCC1)c1ccc2oc3ccc(C(=O)CCCN4CCCCC4)cc3c2c1` reads 70 to 71 °C; that for `Cn1nnc(CN2CCC[C@@H](OCc3cc(C(F)(F)F)cc(C(F)(F)F)c3)[C@H]2c2ccccc2)n1` (relative stereo), 139 to 141 °C; that for `CCCc1nc(C(C)(C)O)c(C(=O)OCC)n1Cc1ccc(-c2ccccc2C(N)=O)cc1`, 148 to 151 °C.

`C=CCn1c(=O)c2[nH]c(C34CC5CC(CC3C5)C4)nc2n(CCC)c1=O` came in with a melting point of 191 to 192 °C.

`CC(C)NC(=O)OCC1CSC2=C(O1)c1ccccc1C(=O)C2=O` (centres undefined) came in with a melting point of 218 to 220 °C. For the molecule `O=C(c1ccn2c1CSC2c1cccnc1)c1c[nH]c2cc(-c3cccnc3)ccc12` (centres undefined), the melting point was in the range of 270 to 271 °C.

In turn, `CC(C)(C)OC(=O)N1CCC(=CS(=O)(=O)NC(=O)c2cc(C(F)(F)F)cc(C(F)(F)F)c2)CC1` displayed a melting point of 132 to 136 °C. The same measure for `O=c1ccn(-c2cccc(C(F)(F)F)c2)nc1-c1ncnn1-c1ccccc1`: 167 to 168 °C; for `C[C@@H]1O[C@](C#Cc2ccoc2)(C(F)(F)F)c2cc(Cl)ccc2NC1=O` (relative stereo): 214 to 215 °C.

In turn, `Cn1ncnc1COc1nn2c(-c3ccccc3F)nnc2cc1CC1CCCC1` returned a melting point of 135 to 137 °C. `O=C(O)Cc1ccc(OCc2ccccc2C(=O)O)cc1`: the melting point fell in the range of 171 to 174 °C. In the case of `CNC(=S)N1CCC23C=C[C@H](O)CC2Oc2c(OC)cc(Br)c(c23)C1` (some centres undefined), the melting point fell in the range of 183 to 185 °C. `O=C(O)C(CC(=O)N1Cc2ccc(F)cc2C1)Cc1ccccc1` (centres undefined): the melting point fell in the range of 136 to 138 °C. For the molecule `CCCCOC(=O)C(NC(=O)OCc1ccccc1)c1cccs1` (centres undefined), the melting point worked out at 37 °C.

For the molecule `COC1=C(OC)C(=O)C(CCCCCCCCCC(=O)N[C@H](CCC(=O)O)C(N)=O)=C(C)C1=O`, the melting point lay in the range of 136 to 137 °C.

`Cc1cc2c3c(ccc2cc1Br)OC(=O)C3(C)C` registered a melting point of 187 to 189 °C.

Consider `Cc1nc(-n2cc(COc3ccccc3)nn2)sc1C(=O)NCc1ccccc1`, for which the melting point lay in the range of 140 to 143 °C. Consider `COc1ccc(SCc2ccccc2)cc1`, for which the melting point is 48 to 50 °C. Turning to `CC1=NN=C(c2cccc(N)c2)c2cc3c(cc2C1)OCO3`, the melting point fell in the range of 190 to 191 °C. The same measure for `CC(C)C[C@@H]1NC(=O)OC1(c1ccccc1)c1ccccc1`: 212 to 214 °C; for `CN(Cc1cc(C(F)(F)F)cc(C(F)(F)F)c1)C(=O)c1c(-c2ccc(F)cc2)c2c(c(=O)n1C)CCCN2`: 226 to 228 °C. The result for `COc1ccc(OCC(=O)O)c2c(=O)c3ccccc3sc12` reads 223 to 225 °C; that for `CC(C)(C)c1ccccc1N1CCN(C(=O)Nc2ccccc2)CC1`, 68 to 72 °C. `CCCCCCCCCCCCCCCCCCOC1OCC(CNC(=O)C(F)(F)F)O1` (centres undefined) returned a melting point of 80 °C. The same measure for `N#Cc1cnn(-c2ncc(C(F)(F)F)cc2Cl)c1C=CC(=O)O`: 225 to 228 °C.

As for `O=C1CCC(c2cccc(F)c2)(c2cccc(F)c2)CC1`, the melting point stood at 95 °C. In the case of `COc1ccc(-c2ccc3[nH]c(=O)ccc3c2)cn1`, the melting point fell in the range of 248 to 252 °C. `CCCCc1ncc(/C=C/C=C/C(=O)O)n1Cc1ccccc1Cl` gave a melting point of 219 to 220 °C. `O=C1NCCN1Cc1ccc(OCc2ccccc2)cc1` returned a melting point of 110 to 122 °C. `O=C1c2cccc3c(N4CCCCC4)c(Br)cc(c23)C(=O)N1O` gave a melting point of over 250 °C.

`CSc1nc(C)ccc1NC(=O)CCCCCSc1nc2ccccc2o1` showed a melting point of 140 to 141 °C. Molecule `Cc1ccccc1C(=O)NC(NC(=O)Nc1cccnc1)C(Cl)(Cl)Cl` (centres undefined) returned a melting point of 182 to 184 °C.

Molecule `Oc1ncnc2c(-c3ccc(Br)cc3)cnn12` registered a melting point of over 300 °C. The same measure for `Cc1csc(C2=NOCCO2)c1Br`: 67 °C; for `Cc1ccc(NC(=O)Nc2ccc(N(CCCl)CCCl)cc2)cc1Nc1c2cccc(C)c2nc2c(C(=O)NCCN(C)C)cccc12`: 286 to 289 °C; for `CC1CC(C)CN(C(=O)c2ccccc2)C1` (centres undefined): 107 to 109 °C.

With `CN(CCc1cccc(OCC(=O)O)c1)c1cnc(-c2ccccc2)c(-c2ccccc2)n1`, the melting point was in the range of 174 to 176 °C.

For `CCCCC1(CCCC)CCc2c(OCc3ccccc3C#N)cccc2C1O` (centres undefined), the melting point lay in the range of 112 to 113 °C. Regarding `CCOCc1nc2c(N)nc3cc(N4CCOC4=O)ccc3c2n1CC(C)(C)O`, the melting point was over 250 °C. With `O=c1[nH]c2ccccc2c2cc(CC(=S)N3CCOCC3)nn12`, the melting point was 273 to 275 °C. The same measure for `COC(=O)CCCC#Cc1cc(Cl)ccc1NS(=O)(=O)c1cc(OC)ccc1OC`: 115 to 117 °C; for `ClCCCOc1ccc(-n2cncn2)cc1`: 81 to 82 °C. For the molecule `[N-]=[N+]=NCC(=O)Nc1ccc(S(=O)(=O)c2cccc(Cl)c2)cc1`, the melting point is 125 to 126 °C. Take `NC(=O)c1cnn2c1N(C(=O)CCl)CC=C2c1cccc(C(F)(F)F)c1`: the melting point was in the range of 174 to 176 °C. As to `CCOC(=O)c1c(N2CCN(C(=O)c3cccs3)CC2)c2cscc2n(Cc2ccc(F)cc2)c1=O`, the melting point is 227 °C. For `CC(Cn1ccnc1)Cn1nnc2ccc(Cl)cc2c1=O` (centres undefined), the melting point lay in the range of 100 to 102 °C.

The molecule `N#Cc1cccc(COc2ncc(F)c(NC(=O)NCc3ccccc3F)n2)c1` returned a melting point of 177 to 178 °C. Molecule `COc1cc(C)nc(NC(=O)NS(=O)(=O)c2ccccc2OCCOS(C)(=O)=O)n1` gave a melting point of 176 to 179 °C. Molecule `C=CCN1C(=C)C(=O)N[C@@H](Cc2ccccc2)C1=O` had a melting point of 102 to 110 °C.

Molecule `CCC(C)(C)c1ccc(OCCCNC(=O)c2cc(OS(=O)(=O)CCCOc3ccc(N)cc3)c3ccccc3c2O)c(C(C)(C)CC)c1` had a melting point of 125 to 126 °C.

For `Brc1ccc2cnncc2c1`, the melting point lay in the range of 140 to 143 °C. Molecule `O=C(c1ccccc1)c1cc2ccncc2n1S(=O)(=O)c1ccccc1` registered a melting point of 145 to 146 °C. Regarding `O=c1ccn(-c2cccnc2)nc1-c1ccnn1-c1ccccc1`, the melting point fell in the range of 176 to 177 °C.

On to `COc1cc(OC)nc(Sc2nccc(-c3ccc(Cl)cc3)c2C(=O)O)n1`, for which the melting point is 219 to 223 °C. The same measure for `COC(=O)CN1CN(c2ccccc2)C2(CCN(Cc3cccc4ccccc34)CC2)C1=O`: 122 to 135 °C; for `O=C1c2c(ccc3c2OCCO3)S(=O)(=O)N1CCCCO`: 119 to 122 °C. As to `O=S(=O)(c1cc(C(F)(F)F)[nH]c1-c1ccc(Cl)cc1)C(F)(F)F`, the melting point lay within 167 to 169 °C.

The molecule `CCOC(=O)N1CCCc2nc3ccccc3c(O)c2C1` gave a melting point of 285 °C.
